Experimental data from publication PMC6269309 (Haematologica, 2018).
Read-outs that look alike come from different tables or passages of the source.

How the values were obtained:
[1] = test system: Btk pY223; format: cell-based, human
[2] = test system: Btk; settings: cited from earlier work
[3] = test system: platelet aggregation induced by ADP and PAR1 peptide; format: in vivo, human; settings: patients taking either inhibitor, data not shown
[4] = test system: Tec; experiment: Tec phosphorylation, immunoprecipitation and blotting with 4G10; format: cell-based, human; settings: washed platelets 8x10^8/mL, CRP 10 μg/mL 180 s
[5] = test system: PLCγ2 pY1217; experiment: Ex vivo PLCγ2 pY1217 phosphorylation in washed platelets of treated patients; set-up: species or system human; settings: CLL patients, ibrutinib 420 mg once daily or acalabrutinib 100 mg twice daily
[6] = test system: GPVI-induced platelet aggregation; format: in vivo, human; settings: CLL patients, ibrutinib 420 mg once daily or acalabrutinib 100 mg twice daily, PRP, 2-3 h after dose, CRP 10 μg/mL
[7] = test system: PLCγ2 pY753, pY759, pY1217; experiment: Protein phosphorylation, western blot of CRP-stimulated washed platelets: PLCγ2; format: cell-based, human
[8] = test system: Syk pY525/6; format: cell-based, human
[9] = test system: SLP-76 pY145; format: cell-based, human
[10] = test system: Btk pY223; settings: CLL patients, ibrutinib 420 mg once daily or acalabrutinib 100 mg twice daily
[11] = cited from earlier work
[12] = test system: Src pY418; format: cell-based, human
[13] = cited from earlier work; remark: listed apart in the source
[14] = test system: GPVI-mediated platelet aggregation (washed platelets, CRP); experiment: Light transmission aggregometry, washed platelets stimulated with CRP; format: cell-based, human
[15] = test system: LAT pY200; format: cell-based, human
[16] = test system: Btk pY551; format: cell-based, human
[17] = test system: Ca2+ mobilization in platelets; experiment: Measurement of [Ca2+]i in Fura-2-loaded platelets stimulated with CRP; format: cell-based, human
[18] = test system: Btk; settings: doses of 2.5 mg/kg; cited from earlier work
[19] = test system: NFAT signaling in DT40 cells; format: cell-based, chicken; settings: collagen 10 μg/mL, no serum
[20] = test system: whole cell tyrosine phosphorylation; experiment: Whole cell tyrosine phosphorylation in CRP-stimulated washed platelets; format: cell-based, human
[21] = test system: ATP secretion of washed platelets; experiment: Granule release; format: cell-based, human
[22] = cited from earlier work; remark: listed apart in the source
[23] = higher concentrations, up to 200 μM

For `CC#CC(=O)N1CCC[C@H]1c1nc(-c2ccc(C(=O)Nc3ccccn3)cc2)c2c(N)nccn12` [acalabrutinib], the “Tyrosine phosphorylation of Btk on Y223” value ([1]; 2 μM, CRP 10 μg/mL) is listed as “blocked”, the “IC50 for Btk relative to ibrutinib (lower)” value [2] is listed as 5 fold and the “Potency as an inhibitor of Btk relative to ibrutinib (lower)” value [2] is listed as 5 fold. The “Platelet aggregation induced by ADP and PAR1 peptide ex vivo” value [3] was “not altered”, the “Concentration giving full blockade of Tec phosphorylation” value [4] was 200 µM and the “Concentration giving partial inhibition of Tec phosphorylation” value [4] was “approximately 1 μM”. For the same compound, the “Phosphorylation of PLCγ2 pY1217 ex vivo” value [5] was “complete inhibition”, the “GPVI-induced platelet aggregation ex vivo” value [6] was “not blocked” and the “Tyrosine phosphorylation of PLCγ2 on Y759 and Y1217” value ([7]; 2 μM, CRP 10 μg/mL) was “blocked”. The “Phosphorylation of Syk Y525/6” value [8, 23] was “had no effect”, the “Phosphorylation of SLP-76 Y145” value [9, 23] was “small reduction” and the “Autophosphorylation of Btk pY223 ex vivo” value [10] was “complete inhibition”. For the same compound, the “Major hemorrhage in treated patients” value [11] was “not seen”, the “Phosphorylation of Src Y418” value [12, 23] was “had no effect” and the Half-life [13] was 1 h. For the same compound, the “Mean peak free drug concentration in patients” value ([13]; patients) was 1.3 µM, the Onset of aggregation ([14]; 2 μM, CRP) was “slight delay in aggregation” and the “Overall magnitude of aggregation response” value ([14]; 2 μM, CRP) was “no effect”. The “Phosphorylation of LAT Y200” value [15, 23] was “had no effect” and the “Phosphorylation of Btk Y551” value [16, 23] was “small reduction”.
For `C=CC(=O)N1CCC[C@@H](n2nc(-c3ccc(Oc4ccccc4)cc3)c3c(N)ncnc32)C1` [ibrutinib], the “Autophosphorylation of Btk” value ([1]; 70 nM, CRP 10 μg/mL) was “reduced to basal levels”, the “Reversibility of inhibition of Btk pY223 autophosphorylation” value ([1]; two washing steps before CRP) was “irreversible” and the “Peak Ca2+ concentration after a high concentration of CRP” value ([17]; 70 nM) was “not altered”. For the same compound, the “Peak Ca2+ concentration after a high concentration of CRP” value ([17]; 700 nM) was “markedly reduced”, the Btk occupancy [18] was > 95% and the “Platelet aggregation induced by ADP and PAR1 peptide ex vivo” value [3] was “not altered”. For the same compound, the “NFAT signaling, WT and KD Btk transfected cells” value ([19]; high dose (range 0.5-10 μM)) was “blocked NFAT signaling”, the “NFAT signaling, cells transfected with WT or KD Btk” value ([19]; low dose (range 0.5-10 μM)) was “had no effect” and the “Concentration giving full blockade of Tec phosphorylation” value [4] was 7 µM. For the same compound, the “Concentration giving partial blockade of Tec phosphorylation” value [4] was 170 nM, the “Phosphorylation of PLCγ2 pY1217 ex vivo” value [5] was “complete inhibition” and the “GPVI-induced platelet aggregation ex vivo” value [6] was “blocked”. For the same compound, the “Phosphorylation of downstream PLCγ2” value ([7]; 70 nM, CRP 10 μg/mL) was “reduced to basal levels”, the “Reversibility of inhibition of PLCγ2 pY753 and pY1217” value ([7]; two washing steps before CRP) was “irreversible” and the “Phosphorylation of Syk Y525/6” value ([8]; 70 nM, CRP 10 μg/mL) was “not altered”. The “Dose at which inhibition of Syk Y525/6 phosphorylation was seen” value ([8]; CRP 10 μg/mL) was 7 µM, the “Phosphorylation of SLP-76 Y145” value ([9]; 70 nM, CRP 10 μg/mL) was “not altered” and the “Dose at which inhibition of SLP-76 Y145 phosphorylation was seen” value ([9]; CRP 10 μg/mL) was 7 µM. For the same compound, the “Dose at which inhibition of whole cell phosphorylation was seen” value ([20]; CRP 10 μg/mL) was 7 µM, the “Reversibility of inhibition of global tyrosine phosphorylation” value ([20]; two washing steps before CRP) was “reversible on washout” and the “ATP secretion in response to a high concentration of CRP” value ([21]; 70 nM) was “no effect”. For the same compound, the “ATP secretion in response to a high concentration of CRP” value ([21]; 700 nM) was “blocked”, the “Phosphorylation of Src Y418” value ([12]; 70 nM, CRP 10 μg/mL) was “not altered” and the “Reversibility of inhibition of Src pY418” value ([12]; two washing steps before CRP) was “reversible”. The Initial half-life [13] was 2 to 3 h, the Terminal half-life [13] was 4 to 8 h and the “Response to a sub-maximal concentration of CRP” value ([14]; 70 nM) was “reduced response”. The “Aggregation in response to a high concentration of CRP” value ([14]; 70 nM, incubation ≥5 min, CRP 10 μg/mL) was “time-dependent delay in aggregation”, the “Aggregation in response to a high dose of CRP” value ([14]; 700 nM, incubation ≥30 s, CRP 10 μg/mL) was “block aggregation” and the “Phosphorylation of LAT Y200” value ([15]; 70 nM, CRP 10 μg/mL) was “not altered”. For the same compound, the “Dose at which inhibition of LAT Y200 phosphorylation was seen” value ([15]; CRP 10 μg/mL) was 7 µM, the “Bound to plasma proteins” value [22] was 97% and the “Phosphorylation of Btk on Y551” value ([16]; 70 nM, CRP 10 μg/mL) was “not altered”. The “Dose at which inhibition of Btk Y551 phosphorylation was seen” value ([16]; CRP 10 μg/mL) was 7 µM.
